Laboratory results from patent publication US7462486B2, “Methods of selecting T cell receptor V peptides for therapeutic use” (Oregon Health & Science University, priority 2000, dated 2008).
Entries after “also recorded” stand apart in the source; their conditions may differ.

What was measured:
Assay type in all cases: cell-based, human
[1] = tested on: IL-10-secreting T cells (PBMC); assay: IL-10 ELISPOT: frequency of TCR CDR2 peptide-specific cells in PBMC; conditions: for IL-10 response, MS patients versus HC: comparison in words; for frequency of IL-10-secreting T cells: 5 healthy controls; for frequency of IL-10-secreting T cells / frequency of responding cells (IL-10) in HC: single peptide; for frequency of responding cells (IL-10) in HC: healthy controls (HC); for frequency of responding cells (IL-10) in SPMS patient: MS186; for IL-10 response, SPMS patient versus HC: third SPMS patient (MS186), FIG. 4
Procedure: (§1) Antigens. Antigens used in the ELISPOT assay included ConA (2 μg/ml) and synthetic TCR peptides (25 μg/ml), including 116 known AV and BV gene products.
(§2) T cell frequency. To determine antigen-specific T cell frequency by ELISPOT, blood mononuclear cells were separated by Ficoll density gradient centrifugation, resuspended in 2% human AB serum, and aliquotted at 0.5 and 0.25 million cells in triplicate wells of nitrocellulose-coated microtiter plates (Resolution Technologies) pretreated with anti-IFN-γ (Mabtech, Sweden) or anti-IL-10 (PharMingen, San Diego, Calif.) mAb. Peptides, ConA, and medium were added and the plates incubated at 37 C for 24 hours (IFN-γ) or 48 hours (IL-10). Biotin-labeled secondary mAb for each cytokine was added, followed by streptavidin-alkaline phosphatase (Dako Corp., Carpinteria, Calif.) and substrate (BCIP/NBT phosphatase substrate, KPL, Gaithersburg, Md.) to develop optimal blue staining. Cytokine spots were quantified using an AID Immunospot Analyzer (AID, Cleveland, Ohio) equipped with a high resolution lens camera and analytical software designed for use with the AID system. Mean spots/well were calculated for each Ag, and net counts established after subtraction of background (no Ag). The frequency of Ag-specific spot-forming cells per million PBMC was determined from the average net response observed at two different cell concentrations. The mean net frequency+SEM was calculated for MS patients and HC, and differences compared by Student's t test for significance (p<0.05).
(§3) Preparation of ELISPOT plates. Four flat bottom 96 well plates with nitrocellulose membranes were coated overnight with 4 μg/ml mouse anti-IL-10 monoclonal antibodies (Pharmingen), and an additional 4 plates were coated with 10 μg/ml mouse anti-human INF((Mabtech). Two hours before addition of peptides, plates were washed 3× with sterile PBS, pH 7.2, and blocked for one hour at room temperature with 10% FBS in sterile PBS.
(§4) Blood processing. Twelve tubes of blood (approximately 120 ml) were collected from healthy controls and MS patients. The blood was immediately separated over a Ficoll gradient by centrifugation for 25 minutes at 2100 rpm at 25 degrees. Peripheral blood mononuclear cells (PBMC) so obtained were washed 3× with cold RPMI and resuspended to 10×10^6 cells per ml.
(§5) TCR peptide screens. Sterile stocks containing 1 mg/ml peptide were aliquotted among 4 sterile 96 well polypropylene blocks. Blocks were kept refrigerated for up to one month. Precoated and blocked ELIPSOT plates were washed with 1× with blocking solution and 100 μl of stimulation medium was added (5% fetal bovine serum/1% human AB serum/2 mM pyruvate, 2 mM glutamate, and 50 μg/ml penicillin/streptomycin). 10 μl of each peptide was added per well in triplicate wells. Negative control wells contained RPMI, positive control wells contained 2 μg/ml final concentration ConA. To each well human PBMC were added at a density of 2.5×10^5 cells per well in a total of 8 plates ([…]). Plates were incubated for 24 hours for INF-γ ELISPOTs and for 48 hours for IL-10 ELISPOTs.
(§6) Detection of cytokine producing cells. PBMC were removed from plates by washing with 3× with PBS and 3× with PBS/0.05% Tween, pH 7.6. To each well was added 100 μl of either anti-IFN-γ (1 μg/ml, Mabtech) or anti-IL-10 (2 μg/ml, Pharmingen) and incubated for 4 hours at room temperature in the dark. Plates were washed 4× with PBS/Tween, then 100 μl per well of alkaline-phosphatase-conjugated streptaviden (DAKO) (1:1000 of stock) was added and plates were incubated for 45 minutes at room temperature. Plates were washed 4× with PBS/Tween and 6× with PBS, 1 minute each. 100 μl of BCIP/NBT substrate (KPL laboratories) was added and the color reaction was allowed to develop for 3-7 minutes. Plates were rinsed 3× with distilled water and dried overnight at room temperature.
(§7) Analysis of ELISPOTS. […]

[2] = tested on: IFN-γ-secreting T cells (PBMC); assay: IFN-γ ELISPOT: frequency of TCR CDR2 peptide-specific cells in PBMC; conditions: for induction of IFN-γ-secreting T cells in HC: 5 HC; for frequency of IFN-γ-secreting cells: 5 healthy controls, mean, single peptide
Procedure: as §1, §2, §3, §4, §5, §6, §7

[3] = tested on: CD4+CD25− T cells; assay: Treg assay of antigen-specific CD4+CD25+ T cell lines; conditions: result in words

Substance: ALGQGPQFIFQYYEEEERQRG [BV5S2]
- IL-10 response, MS patients versus HC [1]: significantly lower; also recorded: significantly reduced frequencies

Substance: DLGHGLRLIHYSYGVKDTNKG [BV12S2A2T]
- induction of IFN-γ-secreting T cells in HC [2]: induced IFN-γ-secreting T cells in all 5 HC
- IFN-γ recognition by MS patients [2]: poorly recognized

Substance: DLGHGLRLIHYSYGVQDTNKG [BV12S2A1T]
- induction of IFN-γ-secreting T cells in HC [2]: induced IFN-γ-secreting T cells in all 5 HC
- IFN-γ recognition by MS patients [2]: poorly recognized

Substance: KHGEAPVFLMILLKGGEQKGH [AV29S1A2T]
- frequency of IL-10-secreting T cells ([1]; mean): > 1000 cells/million PBMC
- frequency of responding cells (IL-10) in MS patients ([1]; MS patients, mean): > 1500 cells/million
- frequency of responding cells (IL-10) in HC [1]: about 1000 cells/million

Substance: KLEEELKFLVYFQNEELIQKA [BV10S1P]
- frequency of IFN-γ-secreting cells [2]: minimal frequencies
- frequency of IL-10-secreting T cells ([1]; mean): > 2000 cells/million PBMC

Substance: NQNKEFMLLISFQNEQVLQET [BV19S1P]
- frequency of IFN-γ-secreting cells [2]: 900 cells/million PBMC

Substance: SLGQGPEFLIYFQGTGAADDS [BV6S1A1N1]
- IL-10 response, MS patients versus HC [1]: significantly lower
- IL-10 response, MS patients versus HC ([1]; listed as BV6S1A1N1T): significantly reduced frequencies

Substance: SSGEMIFLIYQGSYDQQNATE [ADV6S1A1N1]
- induction of IFN-γ-secreting T cells in HC [2]: induced IFN-γ-secreting T cells in all 5 HC
- IFN-γ recognition by MS patients [2]: poorly recognized

Substance: Tetanus toxoid
- Treg activity of T cell line specific for the antigen [3]: did not have any detectable Treg activity

Substance: VLKNEFKFLISFQNENVFDET [BV25S1A1T]
- frequency of responding cells (IL-10) in SPMS patient [1]: 450 cells/million
- frequency of responding cells (IL-10) in HC [1]: 150 cells/million
- IL-10 response, SPMS patient versus HC [1]: responded better than HC

Substance: YPNQGLQLLLKYTSAATLVKG [AV1S2A1N1T]
- frequency of responding cells (IL-10) in SPMS patient [1]: 300 cells/million
- frequency of responding cells (IL-10) in two symptomatic RRMS patients ([1]; MS193 and MS74): > 1700 cells/million
- frequency of responding cells (IL-10) in HC [1]: < 25 cells/million
- IL-10 response, SPMS patient versus HC [1]: responded better than HC
